In US20130109703A1, “Combination of a GPR119 Agonist and the DPP-IV Inhibitor Linagliptin for Use in the Treatment of Diabetes and Related Conditions” (Boehringer Ingelheim International GmbH, priority 2010, published 2013):

How the values were obtained:
[1] = system: Zucker Diabetic Fatty (ZDF) rats (ZDF/Crl-Lepr^fa); test: Oral glucose tolerance test in overnight fasted 15-weeks old male ZDF rats (highly insulin-resistant model); format: in vivo, rat; settings: single oral dose 30 min before oral glucose load 2 g/kg, Cpd. A 3 mg/kg, combination at the same doses, versus vehicle
Experimental: According to a second example an oral glucose tolerance test is performed in overnight fasted 15-weeks old male Zucker Diabetic Fatty (ZDF) rats (ZDF/Crl-Lepr^fa). This aged ZDF rats serve as a highly insulin-resistant animal model. A pre-dose blood sample is obtained by tail bleed. Blood glucose is measured with a glucometer, and the animals are randomized for blood glucose (n=5/group). […] The animals receive an oral glucose load (2 g/kg) 30 min after compound administration. Blood glucose is measured in tail blood 30 min, 60 min, 90 min, 120 min, and 180 min after the glucose challenge. Glucose excursion is quantified by calculating the reactive glucose AUC. The data are presented as mean±SEM. The two-sided unpaired Student t-test is used for statistical comparison of the control group and the active groups as well as between active groups.

[2] = Excretion route of BI 1356 at therapeutic oral dose levels; format: in vivo
[3] = system: Zucker Diabetic Fatty (ZDF) rats (ZDF/Crl-Lepr^fa); test: Oral glucose tolerance test in overnight fasted 9-weeks old male ZDF rats; format: in vivo, rat; settings: 1st Example, FIG. 1; single oral dose 30 min before oral glucose load 2 g/kg; Cpd. A 3 mg/kg, Cpd. B 100 mg/kg, combination at the same doses; versus vehicle
Experimental: According to a first example an oral glucose tolerance test is performed in overnight fasted 9-weeks old male Zucker Diabetic Fatty (ZDF) rats (ZDF/Crl-Lepr^fa). A pre-dose blood sample is obtained by tail bleed. Blood glucose is measured with a glucometer, and the animals are randomized for blood glucose (n=5/group). […] The animals receive an oral glucose load (2 g/kg) 30 min after compound administration. Blood glucose is measured in tail blood 15 min, 30 min, 60 min, and 90 min after the glucose challenge. Glucose excursion is quantified by calculating the reactive glucose AUC. The data are presented as mean±SEM. The two-sided unpaired Student t-test is used for statistical comparison of the control group and the active groups as well as between active groups.

Compound: CC#CCn1c(N2CCC[C@@H](N)C2)nc2c1c(=O)n(Cc1nc(C)c3ccccc3n1)c(=O)n2C [Cpd. A, 1-[(4-methyl-quinazolin-2-yl)methyl]-3-methyl-7-(2-butyn-1-yl)-8-(3-(R)-amino-piperidin-1-yl)-xanthine]
- reduction of glucose excursion (reactive glucose AUC) ([1]; 2nd Example, FIG. 2, Cpd. B 30 mg/kg): 1%
- reduction of glucose excursion (reactive glucose AUC) ([1]; 3rd Example, FIG. 3, Cpd. B 10 mg/kg): 1%
- excretion via the kidney [2]: < 7 % of the administered oral dose
- reduction of glucose excursion (reactive glucose AUC) [3]: 49%
